This note sets out measurements from patent US8524302B2, “Natural flavour enhancers and methods for making same” (Pepsico, priority 2009, dated 2013).

Entries after “also recorded” stand apart in the source; their conditions may differ.

Common to all, as to format: in vivo
For test [1], the system named is sensory panel. As to the kind of experiment: Sensory tests (organoleptic evaluation) of compounds added to inducing compositions. Particulars: for kokumi sensation / flavour enhancing sensation (in words): added to various inducing compositions or foods; for kokumi sensation (in words): after undergoing an Amadori reaction. The source says: Sensory tests subjecting the flavour enhancing compounds to organoleptic evaluation indicate that the isolated flavouring compounds are substantially tasteless in the form of an aqueous solution, but are useful for imparting the enhanced effects when added even in small amounts to certain inducing compositions or food products containing a glutamate and/or nucleic acid as further described below. […] The thresholds given herein are meant to reflect minimum amounts for use in chicken broth as a matrix; however, one skilled in the art, armed with this disclosure, will recognize that this amount can be adjusted, either higher or lower, dependent upon the matrix used and the desired intensity of the kokumi effect. In general, a certain amount of salt is also necessary to achieve the kokumi effect; typically, about 12 mmol/L, which is found naturally in nearly all food products. The compounds can be applied to different kinds of foods including without limitation snacks, soups, cereals, sauces, fish, and fish paste. Unless otherwise indicated, all sensory tests for the samples are determined using triangle tests ([…] and Belitz, Z. Lebensm. Unters. Forsch., 1975, 159, 65-72) in three different sessions. The sensory panel is trained to evaluate aqueous solutions (2 mL each) of the following reference taste compounds dissolved in bottled water with a pH of 6.0: sucrose (25 mmol/L) for sweet taste; lactic acid (20 mmol/L) for sour taste; NaCl (30 mmol/L) for salty taste; caffeine (1 mmol/L) for bitter taste; and MSG (3 mmol/L) for umami taste, tannic acid (0.05%) for puckering astringency, and quercetin-O-β-D-glucopyranoside (0.01 mmol/L) for a velvety astringent, mouth-drying oral sensation. For the training of viscosity, a gelatin solution (0.5% in water) was used. […] Sensory analyses were performed in a sensory panel room at 19-22° C. in three different sessions using nose clamps. For recording the taste profiles, samples are prepared as indicated in the examples below. Flavor profiles of samples are determined in a triangle test in three different sessions. Panelists refrain from eating or drinking for at least 1 hour prior to the session. At the start of the session and before each trial, the subjects rinsed with water and expectorated. The participants receive a set of two blanks and one taste sample. Liquids are swirled around in the mouth briefly and expectorated. […] Each sample with additive is compared to two reference samples without additives.

Test [2] has as its system sensory panel. Put plainly: Sensory (triangle) tests of the compounds in water. Particulars: for Sensory descriptors: pH 6.5; for Intensity (0-5): pH 6.5, aroma and taste intensity, scale 0-5; for kokumi sensation (in words): without inducing or glutamate-containing composition. How it is done: (§1) Unless otherwise indicated, all sensory tests for the samples are determined using triangle tests (Wieser and Belitz, Z. Lebensm. Unters. Forsch., 1975, 159, 65-72) in three different sessions. The sensory panel is trained to evaluate aqueous solutions (2 mL each) of the following reference taste compounds dissolved in bottled water with a pH of 6.0: sucrose (25 mmol/L) for sweet taste; lactic acid (20 mmol/L) for sour taste; NaCl (30 mmol/L) for salty taste; caffeine (1 mmol/L) for bitter taste; and MSG (3 mmol/L) for umami taste, tannic acid (0.05%) for puckering astringency, and quercetin-O-β-D-glucopyranoside (0.01 mmol/L) for a velvety astringent, mouth-drying oral sensation. For the training of viscosity, a gelatin solution (0.5% in water) was used. […] Sensory analyses were performed in a sensory panel room at 19-22° C. in three different sessions using nose clamps.
(§2) For recording the taste profiles, samples are prepared as indicated in the examples below. Flavor profiles of samples are determined in a triangle test in three different sessions. Panelists refrain from eating or drinking for at least 1 hour prior to the session. At the start of the session and before each trial, the subjects rinsed with water and expectorated. The participants receive a set of two blanks and one taste sample. Liquids are swirled around in the mouth briefly and expectorated. […] Each sample with additive is compared to two reference samples without additives. Kokumi intensity is rated according to a scale from 0 to 5 (with 5 being the most intensive). Punch refers to an initial kokumi sensation experienced in the mouth within 0-3 seconds from the time when a food or liquid is put in the mouth, while long-lasting refers to kokumi felt after 10-60 seconds therefrom.
Sensory (triangle) tests are performed by dissolving the listed compounds in water (Evian®). Additives are added as specified in table below. The pH-value of all samples is adjusted to 6.5 using formic acid (0.1 mol/L) or sodium hydroxide (0.1 mol/L). For each sample, aroma and taste intensity is rated and panelists are asked to describe sensory characteristics.

The subject of test [3] is sensory panel. As to the kind of experiment: Sensory (triangle) tests: kokumi intensity in chicken broth. Particulars: for Kokumi intensity (0-5): pH 6.5, scale 0-5 (blank = 2). On the procedure:
as §1, §2
Sensory (triangle) tests are performed by dilution of 3 grams of chicken broth concentrate (Gourmet Bouillon Huhn; Maggi, Singen, Germany) with 100 mL water (Evian®). Additives are added as specified in table below. The pH-value of all samples is adjusted to 6.5 using formic acid (0.1 mol/L) or sodium hydroxide (0.1 mol/L). […] For each sample, kokumi intensity is rated and panelists were asked to describe sensory characteristics.

Consider `CC=CSCC(NC(=O)CCC(N)C(=O)O)C(=O)NC(C[S+]([O-])C=CC)C(=O)O` (racemic) [γ-L-glu-(E)-S-(propen-1-yl)-L-cys-(E)-S-(propen-1-yl)-L-cys-(+/−)-SO], for which, in the test with sensory panel [1] (listed as formula (I)), the “kokumi sensation / flavour enhancing sensation (in words)” value is “strong kokumi sensation; also recorded: surprisingly highly potent kokumi effect; also recorded: strong flavour enhancing sensation”. For the same compound, in the test on sensory panel [2] (additive 5 mmol/L), the Sensory descriptors result was “flavourless” and the “Intensity (0-5)” value is given as 0. Moreover, in the test with sensory panel [2], the “kokumi sensation (in words)” value is “no kokumi sensation”. Moreover, in the test on sensory panel [3] (Table 10), the “kokumi effect (in words)” value was “surprisingly potent kokumi effect”. In addition, the “Kokumi intensity (0-5)” value with sensory panel [3] (additive 5 mmol/L) is reported as 4.5.
As for `C=CCSC[C@H](N)C(=O)O` [S-allyl-L-cysteine], the “kokumi sensation (in words)” value with sensory panel [1] is given as “good kokumi sensation”. Moreover, the “Intensity (0-5)” value in the test with sensory panel [2] (additive 10 mmol/L) came to 1. The “Kokumi intensity (0-5)” value in the test on sensory panel [3] (additive 10 mmol/L) was 3.3.
In the case of `C/C=C/SC[C@H](NC(=O)CC[C@H](N)C(=O)O)C(=O)O` [γ-L-glutamyl-(E)-S-1-propenyl-L-cysteine], the “kokumi sensation (in words)” value with sensory panel [1] was “good kokumi sensation”. Moreover, in the test on sensory panel [2] (additive 10 mmol/L), the Sensory descriptors entry is reported as “onion aroma” and the “Intensity (0-5)” value was 0.5. In addition, in the test with sensory panel [3] (additive 10 mmol/L), the “Kokumi intensity (0-5)” value is recorded as 3.3.
Consider `C/C=C/SC[C@H](NC(=O)CC[C@H](NC(=O)[C@H](CS/C=C/C)NC(=O)CC[C@H](N)C(=O)O)C(=O)O)C(=O)O` [γ-L-glutamyl-(E)-S-1-propenyl-L-cysteinyl-γ-L-glutamyl-(E)-S-1-propenyl-L-cysteine], for which, in the test on sensory panel [1], the “kokumi sensation / flavour enhancing sensation (in words)” value is “strong flavour enhancing sensation”. In addition, in the test on sensory panel [2] (additive 10 mmol/L), the Sensory descriptors entry is “flavourless” and the “Intensity (0-5)” value is given as 0. In the test on sensory panel [2], the “kokumi sensation (in words)” value is listed as “no kokumi sensation”. Moreover, the “Kokumi intensity (0-5)” value in the test with sensory panel [3] (additive 10 mmol/L) was determined as 3.3.
